Like-named read-outs stand apart in the source and are kept apart here.
Legend:
[1] = tested on: human cytomegalovirus (HCMV), strain AD-169; assay: Antiviral test (plaque reduction) versus HCMV, strain AD-169, in MRC-5 cells; format: cell-based; details: for % Reduction / Number of Plaques: Example 6
[2] = Human betaherpesvirus 5, AD169, MRC5, read-out: % Reduction
[3] = 10 μg/ml, Example 2, ethanol stock (protohypericin in DMSO), cells exposed 6 or more days
[4] = Example 2, cells exposed 6 or more days
[5] = Table 9 summary, two values = two experiments

SMILES	CD50 (MRC-5 cells; human) [µg/mL]	Percent Inhibition of Plaque Numbers (Compared to Virus Controls) ([1]; 0.01 μg/ml, Example 2) [%]	Percent Inhibition of Plaque Numbers (Compared to Virus Controls) ([1]; 0.032 μg/ml, Example 2) [%]	Percent Inhibition of Plaque Numbers (Compared to Virus Controls) ([1]; 0.1 μg/ml, Example 2) [%]	Percent Inhibition of Plaque Numbers (Compared to Virus Controls) ([1]; 0.32 μg/ml, Example 2) [%]	Percent Inhibition of Plaque Numbers (Compared to Virus Controls) ([1]; 1.0 μg/ml, Example 2) [%]	Percent Inhibition of Plaque Numbers (Compared to Virus Controls) ([1]; 3.2 μg/ml, Example 2)	Percent Inhibition of Plaque Numbers (Compared to Virus Controls) [1, 3]	CD50 (MRC-5 cells; [4]) [µg/mL]	CD50 (MRC-5 cells; [5]) [µg/mL]	also measured
O=C1c2cccc(O)c2C(=O)c2cccc(O)c21 [Anthrarufin, anthrarufin]	>10	–	–	–	–	–	–	–	–	–	inhibition at 0.01 µg/mL [1, 2]: 0%; inhibition at 0.032 µg/mL [1, 2]: 0%; inhibition at 0.1 µg/mL [1, 2]: 0%; inhibition at 0.32 µg/mL [1, 2]: 0%; inhibition at 1 µg/mL [1, 2]: 0%; inhibition at 3.2 µg/mL [1, 2]: 0%; inhibition at 10 µg/mL [1, 2]: 0%
Cc1cc(O)c2c(c1)C(=O)c1cccc(O)c1C2=O [Chrysophanol, chrysophanol]	>10	–	–	–	–	–	–	–	–	–	inhibition at 0.01 µg/mL ([1]; Human betaherpesvirus 5, AD169, MRC5, 0.01 μg/ml, Example 2, read-out: Percent Inhibition of Plaque Numbers (Compared to Virus Controls)): 0%; inhibition at 0.032 µg/mL ([1]; Human betaherpesvirus 5, AD169, MRC5, 0.032 μg/ml, Example 2, read-out: Percent Inhibition of Plaque Numbers (Compared to Virus Controls)): 0%; inhibition at 0.1 µg/mL ([1]; Human betaherpesvirus 5, AD169, MRC5, 0.1 μg/ml, Example 2, read-out: Percent Inhibition of Plaque Numbers (Compared to Virus Controls)): 0%; inhibition at 0.32 µg/mL ([1]; Human betaherpesvirus 5, AD169, MRC5, 0.32 μg/ml, Example 2, read-out: Percent Inhibition of Plaque Numbers (Compared to Virus Controls)): 0%; inhibition at 1 µg/mL ([1]; Human betaherpesvirus 5, AD169, MRC5, 1.0 μg/ml, Example 2, read-out: Percent Inhibition of Plaque Numbers (Compared to Virus Controls)): 0%; inhibition at 3.2 µg/mL ([1]; Human betaherpesvirus 5, AD169, MRC5, 3.2 μg/ml, Example 2, read-out: Percent Inhibition of Plaque Numbers (Compared to Virus Controls)): 0%; inhibition at 10 µg/mL ([1]; Human betaherpesvirus 5, AD169, MRC5, 10 μg/ml, Example 2, ethanol stock (protohypericin in DMSO), cells exposed 6 or more days, read-out: Percent Inhibition of Plaque Numbers (Compared to Virus Controls)): 0%
Cc1cc(O)c2c(c1)C(C1c3cc(C)cc(O)c3C(=O)c3c(O)cc(O)cc31)c1cc(O)cc(O)c1C2=O (stereo not shown) [Emodin Bianthrone (d,1), emodin bianthrone]	–	0	0	0	0	33	toxic	toxic	1.2	1.2	–
Cc1cc(O)c2c(c1)C(C1c3cc(C)cc(O)c3C(=O)c3c(O)cc(O)cc31)c1cc(O)cc(O)c1C2=O (stereo not drawn) [Emodin Bianthrone (meso), emodin bianthrone]	–	0	0	0	0	32	toxic	toxic	1.8	1.8	–
O=C(O)c1cc(O)c2c(c1)[C@@H]([C@H]1c3cc(C(=O)O)cc(O)c3C(=O)c3c(O[C@@H]4O[C@H](CO)[C@@H](O)[C@H](O)[C@H]4O)cccc31)c1cccc(O[C@@H]3O[C@H](CO)[C@@H](O)[C@H](O)[C@H]3O)c1C2=O [Meso Sennoside B, sennoside B]	–	0	0	0	0	0	0%	0%	>10	>10	–
COc1cc(O)c2c(c1)C(=O)c1cc(C)cc(O)c1C2=O [Physcione, physcione]	–	–	–	–	–	–	–	–	–	–	% Reduction ([1]; 0.01 μg/ml): 0%; Number of Plaques ([1]; 0.01 μg/ml): 17; % Reduction ([1]; 0.032 μg/ml): 0%; Number of Plaques ([1]; 0.032 μg/ml): 14; % Reduction ([1]; 0.1 μg/ml): 0%; Number of Plaques ([1]; 0.1 μg/ml): 19; % Reduction ([1]; 0.32 μg/ml): 0%; Number of Plaques ([1]; 0.32 μg/ml): 18; % Reduction ([1]; 1.0 μg/ml): 0%; Number of Plaques ([1]; 1.0 μg/ml): 18; % Reduction ([1]; 3.2 μg/ml): 0%; Number of Plaques ([1]; 3.2 μg/ml): 25; % Reduction ([1]; 10.0 μg/ml): 0%; Number of Plaques ([1]; 10.0 μg/ml): 31; CD50 (MRC-5 cells): >10 µg/mL

— patent publication US6686393B1, “Pharmaceutical compositions having antiviral activity against human cytomegalovirus” (Murdock International Corporation, priority 1990, dated 2004)
